Molecules are shown by their SMILES. Read-outs that look alike come from different tables or passages of the source.

This note sets out measurements from US20240150321A1, “PYRAZOLYLSULFONAMIDE COMPOUNDS AND THEIR USE IN THERAPY” (HOTSPOT THERAPEUTICS, INC., priority 2022, published 2024).

For experiment [1], the system named is NF-kB reporter in Jurkat cells. In words: NF-kB reporter assay in Jurkat cells stimulated with aCD3/aCD28/PMA. Particulars: read-out: NF-kB Reporter Assay IC50. In kind it is cell-based. Put shortly: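 Jurkat cells (25,000/well, serum-free RPMI) were pre-incubated 1 h at 37° C with serially diluted compound, then stimulated 4 h with aCD3/aCD28/PMA at final […]. NF-kB reporter activity was read by One-Glo luminescence; IC50 values reported.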
On the technique in general: Reporter assays use an easily measured gene product as a stand-in for the process of interest.

For the next experiment, the target named is Avi-tagged FL MALT-1 (Homo sapiens (Human), UniProt Q9UDY8). In words: MALT-1 Fluorogenic Peptide Cleavage Assay (MALT1 inhibition assay). In kind it is biochemical. Particulars: Ac-LRSR-AMC peptide substrate, 30 min pre-incubation, 90 min reaction at room temperature. Put shortly: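 Full-length Avi-tagged human MALT-1 (40 nM working stock) pre-incubated 30 min at RT with compound in 25 mM HEPES pH 6.89, 660 mM sodium citrate, 1 mM TCEP, […], 0.05% CHAPS, 2% DMSO. Ac-LRSR-AMC added at Km (50 μM working stock) or 10×Km (280 μM working stock); 90 min at RT, AMC fluorescence (ex 342/em 441 nm), IC50 from % inhibition curves.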

[2] abbreviates: Homo sapiens, Jurkat cells, 1 hr compound pre-incubation, aCD3/aCD28/PMA stimulation 4 hr, One-Glo readout.
[3] abbreviates: Jurkat cells, 1 hr compound pre-incubation, aCD3/aCD28/PMA stimulation 4 hr, One-Glo readout.

Sequence of Avi-tagged FL MALT-1 (Q9UDY8 whole entry): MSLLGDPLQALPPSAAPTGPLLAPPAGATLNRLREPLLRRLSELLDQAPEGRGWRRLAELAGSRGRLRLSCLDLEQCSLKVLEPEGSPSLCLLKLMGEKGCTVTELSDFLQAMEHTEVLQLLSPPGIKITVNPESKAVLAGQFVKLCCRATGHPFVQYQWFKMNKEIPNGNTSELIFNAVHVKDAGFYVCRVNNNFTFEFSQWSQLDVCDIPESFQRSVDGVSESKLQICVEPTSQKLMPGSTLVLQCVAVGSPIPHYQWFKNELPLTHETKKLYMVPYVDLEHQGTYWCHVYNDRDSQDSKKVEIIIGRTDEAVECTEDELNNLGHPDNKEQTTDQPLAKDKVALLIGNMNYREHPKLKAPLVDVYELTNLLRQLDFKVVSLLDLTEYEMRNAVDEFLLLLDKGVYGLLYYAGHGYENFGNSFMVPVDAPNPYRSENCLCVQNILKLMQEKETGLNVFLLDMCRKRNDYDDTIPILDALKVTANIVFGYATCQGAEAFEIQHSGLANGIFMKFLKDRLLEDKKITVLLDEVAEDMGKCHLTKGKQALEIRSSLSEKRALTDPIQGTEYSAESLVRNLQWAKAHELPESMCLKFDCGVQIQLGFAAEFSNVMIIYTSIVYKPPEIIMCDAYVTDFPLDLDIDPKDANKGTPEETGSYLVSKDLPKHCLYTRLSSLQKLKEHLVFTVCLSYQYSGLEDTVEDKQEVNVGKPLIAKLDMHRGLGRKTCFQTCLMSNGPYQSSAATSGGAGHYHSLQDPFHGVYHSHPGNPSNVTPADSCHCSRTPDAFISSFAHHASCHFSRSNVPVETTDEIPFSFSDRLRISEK

Regarding `Cn1ncc2cccc(NS(=O)(=O)c3cnn(-c4cc(C5(O)CCOCC5)ccn4)c3)c21` [Compound I-129, 1-(4-(4-hydroxytetrahydro-2H-pyran-4-yl)pyridin-2-yl)-N-(1-methyl-1H-indazol-7-yl)-1H-pyrazole-4-sulfonamide], the IC50 – broadly, the point on the concentration scale where inhibition reaches its midpoint – in experiment [1] (setting [2]) was 400 to 1000 nM; against Avi-tagged FL MALT-1, more than 2500 nM.
For `Cn1ncc2cccc(NS(=O)(=O)c3cnn(-c4cc(C5(F)CCOCC5)ccn4)c3)c21` [Compound I-130, 1-(4-(4-fluorotetrahydro-2H-pyran-4-yl)pyridin-2-yl)-N-(1-methyl-1H-indazol-7-yl)-1H-pyrazole-4-sulfonamide] the same measures were less than 400 nM and more than 2500 nM.
Consider `COC1(c2ccnc(-n3cc(S(=O)(=O)Nc4cccc5cnn(C)c45)cn3)c2)CCOCC1` [Compound I-131, 1-(4-(4-methoxytetrahydro-2H-pyran-4-yl)pyridin-2-yl)-N-(1-methyl-1H-indazol-7-yl)-1H-pyrazole-4-sulfonamide], for which the IC50 is less than 400 nM in experiment [1] (setting [2]) and more than 2500 nM on Avi-tagged FL MALT-1.
As for `COc1ccc2cnn(C)c2c1NS(=O)(=O)c1cnn(-c2cc(C3(OC)CCC3)ccn2)c1` [Compound I-132, N-(6-Methoxy-1-Methyl-1H-Indazol-7-yl)-1-(4-(1-Methoxycyclobutyl)Pyridin-2-yl)-1H-Pyrazole-4-Sulfonamide], the IC50 in experiment [1] (Homo sapiens, Jurkat) is less than 400 nM; against Avi-tagged FL MALT-1, not above 400 nM.
Regarding `COc1ccc2cnn(C)c2c1NS(=O)(=O)c1cnn(-c2cc(C(F)F)ccn2)c1` [Compound I-133, 1-(4-(Difluoromethyl)Pyridin-2-yl)-N-(6-Methoxy-1-Methyl-1H-Indazol-7-yl)-1H-Pyrazole-4-Sulfonamide], the IC50 is less than 400 nM in experiment [1] (setting [2]) and not above 400 nM on Avi-tagged FL MALT-1.
On to `COc1ccc2cnn(C)c2c1NS(=O)(=O)c1cnn(-c2cc(C(C)O)ccn2)c1` (stereo not shown) [Compound I-134, 1-(4-(1-hydroxyethyl)pyridin-2-yl)-N-(6-methoxy-1-methyl-1H-indazol-7-yl)-1H-pyrazole-4-sulfonamide], for which the IC50 in experiment [1] (setting [2]) is less than 400 nM; at Avi-tagged FL MALT-1, 400 to 1000 nM.
With `COc1ccc2cnn(C)c2c1NS(=O)(=O)c1cnn(-c2cc(C(C)(C)O)ccn2)c1` [Compound I-135, 1-(4-(2-hydroxypropan-2-yl)pyridin-2-yl)-N-(6-methoxy-1-methyl-1H-indazol-7-yl)-1H-pyrazole-4-sulfonamide], the concentration for half-maximal inhibition (IC50) in experiment [1] (setting [2]) was less than 400 nM; on Avi-tagged FL MALT-1, 400 to 1000 nM.
`Cn1ncc2ccc(F)c(NS(=O)(=O)c3cnn(-c4cc(C(F)(F)F)ccn4)c3)c21` [Compound I-136, N-(6-fluoro-1-methyl-1H-indazol-7-yl)-1-(4-(trifluoromethyl)pyridin-2-yl)-1H-pyrazole-4-sulfonamide]: the IC50 (in experiment [1] (setting [2]); at Avi-tagged FL MALT-1) was 400 to 1000 nM in each case.
Consider `Cc1c(S(=O)(=O)Nc2cccc3cnn(C)c23)cnn1-c1cc(C(F)(F)F)ccn1` [Compound I-137, 5-methyl-N-(1-methyl-1H-indazol-7-yl)-1-(4-(trifluoromethyl)pyridin-2-yl)-1H-pyrazole-4-sulfonamide], for which the values for the IC50 (in experiment [1] (setting [2]); against Avi-tagged FL MALT-1) were less than 400 nM and 400 to 1000 nM, respectively.
The corresponding values for `COC1(c2ccnc(-n3cc(S(=O)(=O)Nc4cccc5cnn(C)c45)cn3)c2)CC(F)(F)C1` [Compound I-138, 1-(4-(3,3-difluoro-1-methoxycyclobutyl)pyridin-2-yl)-N-(1-methyl-1H-indazol-7-yl)-1H-pyrazole-4-sulfonamide] are less than 400 nM and more than 2500 nM.
`Cn1nc(F)c2cccc(NS(=O)(=O)c3cnn(-c4cc(C(C)(F)F)ccn4)c3)c21` [Compound I-139, 1-(4-(1,1-Difluoroethyl)Pyridin-2-yl)-N-(3-FLUORO-1-Methyl-1H-Indazol-7-yl)-1H-Pyrazole-4-Sulfonamide]: the values for the IC50 (in experiment [1] (setting [2]); against Avi-tagged FL MALT-1) were less than 400 nM and more than 2500 nM, respectively.
For `CCC(F)(F)c1ccnc(-n2cc(S(=O)(=O)Nc3cccc4cnn(C)c34)cn2)c1` [Compound I-140, 1-(4-(1,1-difluoropropyl)pyridin-2-yl)-N-(1-methyl-1H-indazol-7-yl)-1H-pyrazole-4-sulfonamide], the IC50 in experiment [1] (Homo sapiens, Jurkat) was less than 400 nM; against Avi-tagged FL MALT-1 it was more than 2500 nM.
As to `COc1ncc2cnn(C)c2c1NS(=O)(=O)c1cnn(-c2cc(C(C)(F)F)ccn2)c1` [Compound I-141, 1-(4-(1,1-Difluoroethyl)Pyridin-2-yl)-N-(6-Methoxy-1-Methyl-1H-Pyrazolo[4,3-C]Pyridin-7-yl)-1H-Pyrazole-4-Sulfonamide], the IC50 is less than 400 nM in experiment [1] (setting [2]) and not above 400 nM against Avi-tagged FL MALT-1.
For `COc1ccc2cnn(C)c2c1NS(=O)(=O)c1cnn(-c2cc(C3(OC)CC(C)C3)ccn2)c1` (stereo not shown) [Compound I-142, N-(6-methoxy-1-methyl-1H-indazol-7-yl)-1-(4-(1-methoxy-3-methylcyclobutyl)pyridin-2-yl)-1H-pyrazole-4-sulfonamide], the IC50 in experiment [1] (setting [2]) was less than 400 nM; at Avi-tagged FL MALT-1, 400 to 1000 nM.
As for `COc1ccc2cnn(C)c2c1NS(=O)(=O)c1cnn(-c2cc(C3(O)CC(C)C3)ccn2)c1` (stereo not shown) [Compound I-143, 1-(4-(1-hydroxy-3-methylcyclobutyl)pyridin-2-yl)-N-(6-methoxy-1-methyl-1H-indazol-7-yl)-1H-pyrazole-4-sulfonamide], the results for the IC50 (in experiment [1] (setting [2]); against Avi-tagged FL MALT-1) were less than 400 nM and 1000 to 2500 nM, respectively.
`COc1ccc2cnn(C)c2c1NS(=O)(=O)c1cnn(-c2cc(C3(F)CCC3)ccn2)c1` [Compound I-144, 1-(4-(1-fluorocyclobutyl)pyridin-2-yl)-N-(6-methoxy-1-methyl-1H-indazol-7-yl)-1H-pyrazole-4-sulfonamide]: the IC50 is less than 400 nM in experiment [1] (Homo sapiens, Jurkat) and not above 400 nM against Avi-tagged FL MALT-1.
With `Cn1ncc2cccc(NS(=O)(=O)c3cnn(-c4ccccn4)c3)c21` [Compound I-145, N-(1-methyl-1H-indazol-7-yl)-1-(pyridin-2-yl)-1H-pyrazole-4-sulfonamide], the IC50 in experiment [1] (Homo sapiens, Jurkat) is less than 400 nM; against Avi-tagged FL MALT-1, more than 2500 nM.
For `COc1ccnc(-n2cc(S(=O)(=O)Nc3cccc4cnn(C)c34)cn2)c1` [Compound I-146, 1-(4-methoxypyridin-2-yl)-N-(1-methylindazol-7-yl)pyrazole-4-sulfonamide], the IC50 in experiment [1] (setting [2]) is less than 400 nM; on Avi-tagged FL MALT-1, more than 2500 nM.
Take `O=S(=O)(Nc1cccc2cnn(C(F)F)c12)c1cnn(-c2cc(C(F)(F)F)ccn2)c1` [Compound I-239]: the IC50 (in experiment [1] (setting [2]); against Avi-tagged FL MALT-1) was more than 2500 nM each time.
On to `Cc1n[nH]c2cccc(NS(=O)(=O)c3cnn(-c4cc(C5(F)COC5)ccn4)c3)c12` [Compound I-240, 1-[4-(3-fluorooxetan-3-yl)pyridin-2-yl]-N-(3-methyl-1H-indazol-4-yl)pyrazole-4-sulfonamide], for which the half-inhibitory concentration (IC50) was less than 400 nM in experiment [1] (setting [2]) and more than 2500 nM at Avi-tagged FL MALT-1.
For `COc1ncc2cnn(C)c2c1NS(=O)(=O)c1cnn(-c2cc(C(F)(F)F)nn2C)c1` [Compound I-241], the IC50 (in experiment [1] (setting [2]); on Avi-tagged FL MALT-1) was more than 2500 nM in each case.
`COc1ccc2cnn(C)c2c1NS(=O)(=O)c1cnn(-c2cc(C(F)(F)F)nn2C)c1` [Compound I-242]: the IC50 is 1000 to 2500 nM in experiment [1] (setting [2]) and more than 2500 nM against Avi-tagged FL MALT-1.
On to `Cc1n[nH]c2cccc(NS(=O)(=O)c3cnn(-c4cc(C5(O)COC5)ccn4)c3)c12` [Compound I-243], for which the IC50 in experiment [1] (setting [3]) is 1000 to 2500 nM; at Avi-tagged FL MALT-1, more than 2500 nM.
Take `COC1(c2ccnc(-n3cc(S(=O)(=O)Nc4cccc5[nH]nc(C)c45)cn3)c2)COC1` [Compound I-244, 1-(4-(3-methoxyoxetan-3-yl)pyridin-2-yl)-N-(3-methyl-1H-indazol-4-yl)-1H-pyrazole-4-sulfonamide]: the IC50 in experiment [1] (setting [2]) is less than 400 nM; on Avi-tagged FL MALT-1, more than 2500 nM.
With `Cc1n[nH]c2cccc(NS(=O)(=O)c3cnn(-c4cc(C(C)(C)O)ccn4)c3)c12` [Compound I-245], the IC50 in experiment [1] (setting [3]) is less than 400 nM; on Avi-tagged FL MALT-1 it was more than 2500 nM.
For the compound `Cc1n[nH]c2cccc(NS(=O)(=O)c3cnn(-c4cc(C5(O)CCCC5)ccn4)c3)c12` [Compound I-246, 1-[4-(1-hydroxycyclopentyl)pyridin-2-yl]-N-(3-methyl-1H-indazol-4-yl)pyrazole-4-sulfonamide], the IC50 in experiment [1] (setting [2]) was less than 400 nM; against Avi-tagged FL MALT-1 it was more than 2500 nM.
As to `Cn1ncc2cccc(NS(=O)(=O)c3cnn(-c4cc(C5(O)CCCC5)ccn4)c3)c21` [Compound I-247, 1-[4-(1-hydroxycyclopentyl)pyridin-2-yl]-N-(1-methylindazol-7-yl) pyrazole-4-sulfonamide], the IC50 was less than 400 nM in experiment [1] (setting [2]) and more than 2500 nM on Avi-tagged FL MALT-1.
For `Cn1ncc2cccc(NS(=O)(=O)c3cnn(-c4cc(N5CCC5)ccn4)c3)c21` [Compound I-248, 1-(4-(azetidin-1-yl)pyridin-2-yl)-N-(1-methyl-1H-indazol-7-yl)-1H-pyrazole-4-sulfonamide], the IC50 is less than 400 nM in experiment [1] (Homo sapiens, Jurkat) and more than 2500 nM at Avi-tagged FL MALT-1.
For the compound `Cn1ncc2cccc(NS(=O)(=O)c3cnn(-c4cc(N5CCCC5)ccn4)c3)c21` [Compound I-249, N-(1-methyl-1H-indazol-7-yl)-1-(4-(pyrrolidin-1-yl)pyridin-2-yl)-1H-pyrazole-4-sulfonamide], the IC50 was less than 400 nM in experiment [1] (setting [2]) and more than 2500 nM on Avi-tagged FL MALT-1.
